The values below come from PMC3994986 (Pigment cell & melanoma research, 2012).

One test concerns dog Mc1r. The conditions noted are these: ref Candille et al., 2007; cited from earlier work.
The target in a further test is mouse Mc1r. The conditions noted are these: ref Candille et al., 2007, cited from earlier work.
Test [1] deals with mouse melan-a melanocytes. As to conditions: concentrations up to 1uM, ref Candille et al., 2007; cited from earlier work.
The subject of test [2] is MC1R. In words: Inhibition of α-MSH-induced cAMP. Type of test: cell-based. As to conditions: Figure S1H.
Test [3] deals with T1, human MC1R (Homo sapiens, UniProt Q01726). Type of test: cell-based.
Test [4] has as its target T1, human MC1R. In words: cAMP accumulation in HEK293 cells stably expressing human MC1R wild type. Type of test: cell-based. The conditions noted are these: for agonist character for MC1R-mediated cAMP signalling: HEK cells expressing human MC1R, relative to NDP-MSH. A general note: Changes in cAMP serve as a functional read-out for many G protein-coupled receptors.
Test [5] concerns MC1R. As to conditions: ref Candille et al., 2007; cited from earlier work.
Test [6] concerns MC1R variants D84E, V92M, R142H, R151C, R160W, D294H. Type of test: cell-based, human.
The subject of the next test is HEK293 control cells. In words: pERK response in control HEK293 cells. Type of test: cell-based, human. As to conditions: Figure S2B and E; ligand not given.
Another test deals with NR4A receptor family. The conditions noted are these: ref Smith et al., 2008; cited from earlier work.
Test [7] relates to pERK (HEK293 cells expressing MC1R). Type of test: cell-based, human. As to conditions: PKA inhibitor H89; 300 nM HBD3 (Figure 2C and D); NDP-MSH (Figure S2D).
The subject of the next test is MC1R variant receptors. As to conditions: ref Beaumont et al., 2005, 2007; cited from earlier work.
Test [8] concerns MC1R variants in HBL human melanoma cells. The conditions noted are these: ref Herraiz et al., 2009, 2011; cited from earlier work.
In another test the test system is MAPK signalling. As to conditions: ref Busca et al., 2000; cited from earlier work.

Ends that are not written are not given here.

T1 sequence (Q01726 whole entry): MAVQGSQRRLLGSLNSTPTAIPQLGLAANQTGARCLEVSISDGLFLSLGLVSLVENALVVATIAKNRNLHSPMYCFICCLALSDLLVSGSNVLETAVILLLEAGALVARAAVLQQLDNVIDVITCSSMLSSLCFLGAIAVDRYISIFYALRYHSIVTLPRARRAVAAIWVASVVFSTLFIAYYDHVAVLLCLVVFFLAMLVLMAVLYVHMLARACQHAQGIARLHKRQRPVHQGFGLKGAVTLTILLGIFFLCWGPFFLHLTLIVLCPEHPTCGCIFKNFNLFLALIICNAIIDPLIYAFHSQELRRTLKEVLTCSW

Turning to β-defensin 103 [CBD103], in the test on dog Mc1r, the “binding to dog Mc1r” value is “able to bind to dog and mouse Mc1r”. At mouse Mc1r (mouse Mc1r), the inhibition constant Ki was 0.0151 µM. For the same substance, the “binding to mouse Mc1r” value in the test on mouse Mc1r was “able to bind to dog and mouse Mc1r”. Besides, the “cAMP induction in mouse melanocytes” value in test [1] was “did not induce cAMP”.
Turning to “human β-defensin 3 (GIINTLQKYYCRVRGGRCAVLSCLPKEEQIGKCSTRGRKCCRRKK; ends and bridges not checked; cysteine pairing not given here; UniProt P81534 23-67, looked up) [HBD3]”, the “competitive antagonism of α-MSH induction of cAMP” value in the test on MC1R [2] is reported as “able to act as a competitive antagonist for α-MSH induction of cAMP”. In addition, in the test with human MC1R [3], the “competitive inhibition of NDP-MSH relative to ASIP-YY (cAMP)” value is “weaker competitive inhibitor to NDP-MSH”. In addition, the “inhibition of 1 nM NDP-MSH-induced cAMP” value in the test with human MC1R [3] (100 or 300 nM HBD3, two MC1R-expressing HEK clones (WTe, WT#21), 5–10 min, n = 3) is on record as “able to inhibit the level of 1 nM NDP-MSH-induced cAMP”. Besides, the “effect of increased concentration on level of inhibition” value with human MC1R [3] (100 vs 300 nM HBD3, 1 nM NDP-MSH) was “did not significantly increase the level of inhibition”. For the same substance, the “cAMP induction compared to 100 nM ASIP-YY” value in the test with human MC1R [4] (300 nM HBD3, Figure S1E and F) is “significant increase compared to 100 nM ASIP-YY”. Also, the “agonist character for MC1R-mediated cAMP signalling” value in the test with human MC1R [4] is “partial agonist, with both agonistic and antagonistic effects on cAMP signalling”. The “agonist character for MC1R-mediated cAMP signalling” value with human MC1R [4] (listed as β-defensin 3) is reported as “weak partial agonist for cAMP signalling”. For the same substance, in the test on MC1R [5], the “binding to MC1R” value is on record as “found to bind with high affinity to the melanocortin-1 receptor” and the “displacement of NDP-MSH in ligand-binding assays” value is “displace NDP-MSH in ligand-binding assays”. Further, in [6] (300 nM HBD3, 5 min, exception of R151C and D84E, 2–3 independent experiments, Figure 3A, S3B), the “activation of ERK by variants” value is “With the exception of R151C and D84E, HBD3 stimulation produced a similar activation of ERK by variants”. Moreover, the “pERK induction in control cells” value in the test on HEK293 control cells was “no induction observed in control cells”.
Consider “NDP- melanocyte stimulating hormone [NDP-MSH]”, for which the “induction of the NR4A receptor family” value in the test with NR4A receptor family was “PKC and p38 are involved in the NDP-MSH induction of the NR4A receptor family”. Moreover, the “PKA dependence of MAPK activation” value in test [7] is given as “This was also the case for NDP-MSH activation of MAPK”. For the same substance, the “induction of pERK over basal levels by variant receptors” value in test [6] (10 nM NDP-MSH, 5 min, 2–3 independent experiments, Figure 3A, S3A) is given as “all variant receptors show an induction of pERK over the basal levels”. Besides, in test [6] (10 nM NDP-MSH, 5 min, mean, n ≥ 3, normalized to GAPDH), the “average pERK increase over basal levels, combined variant receptor cells” value amounted to 2.7 fold. Also, the “pERK of combined variant receptor clones compared to control cells” value in [6] (10 nM NDP-MSH, 5 min, n ≥ 3, t-test) is “significant increase compared to the levels of pERK in control cells”. Also, in the test on MC1R variant receptors, the “cAMP response of MC1R variant receptors” value is recorded as “impaired cAMP responses”. In test [8], the “MAPK activation by variant receptors versus wild-type MC1R” value was “able to activate MAPK as efficiently as wild-type MC1R”.
Take “alpha-melanocyte stimulating hormone (SYSMEHFRWGKPV; ends and bridges not checked; UniProt P01189 138-150, looked up) [α-MSH]”: the “induction of MAPK signalling” value in the test with MAPK signalling was “induce MAPK signalling”.

The term Ki denotes a measure of affinity in units of concentration, obtained from inhibition or displacement.
